# Measurements reported in article PMC12067444, “Synthesis and Pharmacological Characterization of Novel Peripheral Cannabinoid-1 Receptor Blockers Based on a Tricyclic Scaffold” (Journal of Medicinal Chemistry, 2025).
# Where two headings read alike, the source gives them in different places.
# Assays:
# CYP1A2 = molecular target: T1, CYP1A2 (Homo sapiens, UniProt P05177); assay: CYP inhibition in human liver microsomes; type: in vitro ADME; settings: probe phenacetin, phenacetin substrate
# T1 construct: from tissue; host or cells: human liver microsomes
# T1 sequence (P05177 1-516): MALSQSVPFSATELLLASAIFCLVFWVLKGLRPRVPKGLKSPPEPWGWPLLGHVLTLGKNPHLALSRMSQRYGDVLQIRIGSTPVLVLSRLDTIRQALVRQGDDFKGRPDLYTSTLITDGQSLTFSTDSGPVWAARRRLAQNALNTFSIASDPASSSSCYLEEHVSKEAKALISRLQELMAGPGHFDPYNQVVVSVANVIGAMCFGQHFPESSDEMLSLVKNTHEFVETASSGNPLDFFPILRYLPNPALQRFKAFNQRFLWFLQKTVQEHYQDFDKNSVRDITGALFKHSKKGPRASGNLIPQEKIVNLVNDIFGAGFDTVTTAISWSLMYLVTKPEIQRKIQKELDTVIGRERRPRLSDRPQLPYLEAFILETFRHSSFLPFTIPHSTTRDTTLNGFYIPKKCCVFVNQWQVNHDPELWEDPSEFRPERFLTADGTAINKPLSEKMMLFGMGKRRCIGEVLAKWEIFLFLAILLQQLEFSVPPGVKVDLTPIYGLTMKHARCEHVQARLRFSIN
# Experimental: (§1) Human liver microsomes were incubated with the test compounds at 0.2 mg/mL of microsomal protein. The incubation was conducted at 37 °C in the presence of a NADPH (β-Nicotinamide adenine dinucleotide phosphate reduced form) regenerating system at a concentration of approximately 10 mM. To assess CYP inhibition, positive control substrates were utilized, including Phenacetin (1A2 substrate), Diclofenac (2C9 substrate), S-mephenytoin (2C19 substrate), Dextromethorphan (2D6 substrate), and Midazolam (3A4 substrate). The mixture was centrifuged after a 10 min incubation period to precipitate the protein. Subsequently, the samples underwent LC-MS/MS analysis, and the IC50 values were calculated to ascertain the inhibitory potency of the test compounds on specific CYP enzymes.
# CYP2D6 = molecular target: T2, CYP2D6 (Homo sapiens, UniProt P10635); assay: CYP inhibition in human liver microsomes; type: in vitro ADME; settings: probe dextromethorphan, dextromethorphan substrate
# T2 construct: from tissue; host or cells: human liver microsomes
# T2 sequence (P10635 whole entry): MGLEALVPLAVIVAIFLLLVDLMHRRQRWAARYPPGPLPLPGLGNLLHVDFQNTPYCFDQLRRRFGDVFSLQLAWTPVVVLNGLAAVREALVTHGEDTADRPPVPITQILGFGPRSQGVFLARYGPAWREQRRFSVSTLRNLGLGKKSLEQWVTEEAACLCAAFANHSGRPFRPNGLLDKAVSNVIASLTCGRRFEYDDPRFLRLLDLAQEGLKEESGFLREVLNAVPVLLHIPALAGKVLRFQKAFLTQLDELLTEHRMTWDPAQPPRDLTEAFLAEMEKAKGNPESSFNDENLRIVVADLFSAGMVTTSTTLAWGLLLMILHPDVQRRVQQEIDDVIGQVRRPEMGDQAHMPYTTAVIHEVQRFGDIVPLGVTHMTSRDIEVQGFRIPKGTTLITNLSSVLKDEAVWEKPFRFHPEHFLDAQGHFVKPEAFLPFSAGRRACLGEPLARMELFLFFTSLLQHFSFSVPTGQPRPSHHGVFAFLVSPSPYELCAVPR
# Experimental: as §1
# [1] = Tissue distribution after acute oral administration; type: in vivo, mouse; settings: for Kp at 1 h: male, C57Bl/6J, mouse, in vivo, 1 mg/kg PO, 1 h post-acute administration
# Experimental: Male C57Bl/6J mice aged 7–9 weeks (3–4 mice per compound) were fasted overnight before administering each test compound. The compounds were accurately weighed and mixed with an appropriate vehicle to prepare a clear oral solution. The formulations were freshly prepared on the dosing day, and the mice were administered the compound via oral gavage within 4 h of formulation preparation. 1, 2, 4, and 8 h after compound administration, the mice were euthanized, and approximately 200 μL of blood was collected via cardiac puncture for plasma preparation. Brain and liver tissues were harvested and processed for analysis. Sample analysis was performed using LC-MS/MS, as described in detail in the SI. […]
# calculated using the equation:
# Lucif er yellow = VV bbbbbbbbbbbbbbbbbbbb ×RR FFFF bbbbbbbbbbbbbbbbbbbb ×100 […]
# Measurements of BNS808 using LC-MS/MS. MS/MS analyses were conducted using a Sciex QTRAP® 6500+ mass spectrometer (Framingham, MA, USA). Air was […]
# Infinity 1031 nitrogen generator (Peak Scientific, Inchinnan, Scotland). Purified air […]
# generator to ensure a continuous and stable air supply.
# [2] = test system: diet-induced obese C57Bl/6J mice; assay: Chronic treatment of diet-induced obese (DIO) mice; type: in vivo, mouse; settings: vs vehicle
# Experimental: To induce diet-induced obesity, the mice were fed a high-fat diet (HFD) containing 60% of calories from fat, 20% from protein, and 20% carbohydrates (Research Diet, D12492) for 16 weeks. HFD-fed obese mice were administered either vehicle or BNS808 (in SEDDs) orally at 1 mg/kg (dosing volume of 1 mL/kg) for 24 days. Daily monitoring of body weight was conducted throughout the experimental period. Total body fat and lean masses were assessed using the EchoMRI-100H (Echo Medical Systems LLC, Houston, TX, USA). At the end of week 20, mice were euthanized via cervical dislocation under anesthesia. Various tissues, including the kidneys, brain, liver, fat pads, and muscles, were harvested and snap-frozen or fixed in buffered 4% formalin. Trunk blood samples were collected for biochemical parameters analysis. […]
structure (smiles),measurement,setting,value
"O=S(=O)(NC1CCCOc2c1nn(-c1ccccc1Cl)c2-c1ccc(Cl)cc1)c1ccc(Cl)cc1 (stereo not shown) [BNS808, 4-chloro-N-[2-(2-chlorophenyl)-3-(4-chlorophenyl)-5,6,7,8-tetrahydrooxepino[3,2-c]pyrazol-8-yl]benzenesulfonamide]",IC50 at 10 min,CYP1A2,> 50 µM
same,IC50 at 10 min,CYP2D6,> 50 µM
same,liver concentration,"[1]; 1 mg/kg PO acute, time point not stated",~200 ng/g
same,"brain concentration, average over time points","[1]; 1 mg/kg PO single acute dose, lean C57Bl/6 mice, 1, 2, 4, 8 h",13.7 ng/g
same,Kp at 1 h,[1]; read-out: brain-to-plasma (B/P) ratio,0.18
same,Kp at 1 h,[1]; read-out: liver/plasma (L/P) ratio,3.62
same,body weight,[2]; 1 mg/kg/day PO (in SEDDs) for 24 days,reduced body weight
same,fasting blood glucose,[2]; 1 mg/kg/day PO for 24 days,reduced the glucose levels in fasting conditions
same,glucose homeostasis (ipGTT),[2]; 1 mg/kg/day PO for 24 days,trend toward substantial effects
same,lean body mass (EchoMRI),[2]; 1 mg/kg/day PO for 24 days,significant increase in lean body mass
same,total body fat (EchoMRI),[2]; 1 mg/kg/day PO for 24 days,reduction in total body fat
same,HDL levels,[2]; 1 mg/kg/day for 24 days,without affecting HDL levels
same,HDL/LDL ratio,[2]; 1 mg/kg/day for 24 days,increased HDL/LDL ratio
same,LDL levels,[2]; 1 mg/kg/day for 24 days,reduced LDL levels
same,hepatic steatosis and hepatocellular damage (histology),[2]; 1 mg/kg/day for 24 days,reversing hepatic steatosis and hepatocellular damage
same,"liver enzymes (ALT, AST, ALP)",[2]; 1 mg/kg/day for 24 days,significant reduction
same,liver triglyceride content,[2]; 1 mg/kg/day for 24 days,significant reduction in liver triglyceride content
same,total cholesterol,[2]; 1 mg/kg/day for 24 days,reduced total cholesterol
same,triglycerides levels (serum),[2]; 1 mg/kg/day for 24 days,reduced
